This note sets out measurements from US8013112B2, “Compositions comprising human brain natriuretic peptide (BNP) fragments” (Abbott Laboratories, priority 2006, dated 2011).

Series [1] is classed as in vitro ADME, human. The procedure:
EDTA plasma of healthy human subjects and human BNP plasma specimens were obtained from ProMedDx LLC (Norton, Mass.), shipped on dry ice, and stored at −70° C. before use.
In this study, human BNP degradation products in human BNP specimens and the impact of temperature on degradation was studied. Prior to sample extractions for analysis, each sample was split into two vials and incubated at room temperature for 0 hours (t=0 hour) and 48 hours (t=48 hours), respectively. The samples were then extracted using the methodology described in Example 4 and analyzed by the API 4000.
Experiments were conducted to determine if human BNP n-32 fragments (where n is an interger b=1, 2, 3, 4, 5, 6) were present in the specimen and to evaluate whether aminopeptidase type protease is involved in human BNP degradation. The samples were prepared and analyzed using the same methodology as described in Example 4, except that samples were monitored for human BNP n-32 fragments (n=1, 2, 3, 4, 5, 6[…]).
Next, to determine if ring cleavage products were present, human BNP fragment 5-32x was then monitored prior to and after incubation at room temperature. The samples were not monitored for other human BNP n-32x fragments since these fragments would be formed by the same process as human BNP 5-32x fragments. Additionally, monitoring for more fragments would reduce the detection sensitivity of the method.
Using both of these approaches, human BNP fragments prior to and after room temperature incubation were monitored for both human BNP n-32 fragments and human BNP n-32x fragments for 20 samples.

Series [2] is classed as in vitro ADME, human. The procedure:
Human BNP was spiked into Human BNP specimens (EDTA plasma) using the same procedure as in Example 2, and the spiked samples were studied using the same methodology as in Example 4. […] However, the cleavage rates appeared to be slower in the heart-failure patient samples: after 8 hours incubation at the room temperature, 80% of the degradation products still contain the C-terminus (human BNP fragment 3-32, human BNP 1-32, and human BNP fragments 3-32X and 1-32x). When the same concentration of human BNP was spiked into a pooled EDTA plasma of healthy human subjects, only 5% of the fragments contain intact C-terminus after 4 hours incubation at room temperature (See, Example 5).
The source holds these as a separate data set.

Series [3] is described as follows: Degradation time course of human BNP 1-32 spiked in pooled EDTA plasma of healthy human subjects, LC/MS.
From the text: An aliquot of the mixture was taken at various time points with protease inhibitor added and frozen immediately. Samples were extracted along with an internal standard (the internal standard was a biotinylated human BNP mutant. In this mutant, amino acid 32 (histidine) was replaced by alanine and is hereinafter referred to as “Biotin-BNP1-32 (H32A)”) by a monoclonal antibody 106.3 (hereinafter referred to as “mAb 106.3”) coated magnetic microparticles and released human BNP and fragments were analyzed by LC/MS. The relative abundance of each fragments were plotted.
To study human BNP degradation near physiological concentration, an API4000 LC/MS system (Applied Biosystems, Foster City, Calif.) equipped with Agilent 1100 HPLC was used to determine the degradation of human BNP spiked at 5 ng/mL in a pooled normal EDTA plasma. […] The major human BNP degradation products (namely, 1-32, 3-32, 3-30, and 3-30x) and kinetics were analyzed by LC/MS using selected ion monitoring mode according to instrument protocol. […]
The relative concentration of human BNP fragments 3-32, 3-30 and 3-30x were monitored at various time points (0.5, 4, 6, 8, 10, 24 hours). Triply charged human BNP peptides and human BNP fragments, namely, 1-32, 3-32, 3-30, and 3-30x were monitored at m/z 1155.6, 1094.6.

Bridges are numbered along the chain shown (N, C = ends). Roman numbers before positions name the chains, in order. Where no end group is shown, it is not given here.

As to “3-30x: Human BNP Fragment Composition: 3-30 with ring cleavage, two fragments (e.g. BNP3-17 and BNP18-30) cross-linked by disulfide bond (chain 1 KMVQGSGCFGRKMDR; chain 2 ISSSSGLGCKVLR; disulfide I:8-II:9 (inferred))”, the “Human BNP fragment Peak high ranking (T = 0 hours)” value in series [1] is reported as 5.

For the molecule “5-30x: Human BNP Fragment Composition 5-30x: ring-cleaved, cross-linked form of fragment 5-30”, the “Human BNP fragment Peak high ranking (T = 0 hours)” value in series [1] turned out to be 4.

Regarding “5-32x: ring-cleaved, cross-linked form of human BNP fragment 5-32”, the “major cleavage product after incubation at room temperature” value in series [1] is on record as “become the major product”.

With `CC[C@H](C)[C@@H]1NC(=O)[C@H](CCCNC(=N)N)NC(=O)[C@H](CC(=O)O)NC(=O)[C@H](CCSC)NC(=O)[C@H](CCCCN)NC(=O)[C@H](CCCNC(=N)N)NC(=O)CNC(=O)[C@H](Cc2ccccc2)NC(=O)[C@@H](NC(=O)CNC(=O)[C@H](CO)NC(=O)CNC(=O)[C@H](CCC(N)=O)NC(=O)[C@@H](NC(=O)[C@H](CCSC)NC(=O)[C@H](CCCCN)NC(=O)[C@@H]2CCCN2C(=O)[C@@H](N)CO)C(C)C)CSSC[C@@H](C(=O)N[C@@H](CCCCN)C(=O)N[C@H](C(=O)N[C@@H](CC(C)C)C(=O)N[C@@H](CCCN=C(N)N)C(=O)N[C@@H](CCCN=C(N)N)C(=O)N[C@@H](Cc2cnc[nH]2)C(=O)O)C(C)C)NC(=O)CNC(=O)[C@H](CC(C)C)NC(=O)CNC(=O)[C@H](CO)NC(=O)[C@H](CO)NC(=O)[C@H](CO)NC(=O)[C@H](CO)NC1=O` [1-32], the “degradation products that still contain the C-terminus” value in series [2] stood at 80%. Also, in series [3] (human BNP spiked at 5 ng/mL in pooled normal EDTA plasma, room temperature, 0.5-24 hours (FIG. 7)), the “relative concentration over the time course of study” value is given as “decreased drastically”. Besides, in series [3] (human BNP spiked in pooled EDTA plasma of healthy human subjects, after 4 hours incubation at room temperature), the “fragments that contain intact C-terminus” value came to 5%. The “Human BNP fragment Peak high ranking (T = 0 hours)” value in series [1] was 3.
